Test results as given in patent US20100285959A1, “HERBICIDAL MIXTURES” (priority 2006, published 2010).

Experiments:
velvetleaf (ABUTH) = experiment: Test 5 field trial, postemergence; format: in vivo, Abutilon theophrasti; settings: atrazine 1120, glufosinate 470 or glyphosate 1120 g a.i./ha alone
Description: (§1) Corn seeds (hybrid ‘Pioneer 38H69’) were planted in mid spring season, 5.1 cm deep in a silty clay loam soil having 3% organic matter and a pH of 6.5. Plots were 9.1 m long by 3.0 m wide with rows spaced 76 cm apart. The field was managed using conventional tillage practices. […] All treatments included a surfactant except glufosinate treatments, both alone and in combination. […] Results are summarized in Table 5 and are the means of the three replicates.

common ragweed (AMBEL) = experiment: Test 5 field trial, postemergence; format: in vivo, Ambrosia artemisiifolia; settings: atrazine 1120, glufosinate 470 or glyphosate 1120 g a.i./ha alone
Description: as §1

[1] = test system: common lambsquarters (CHEAL); experiment: Test 5 field trial, postemergence; format: in vivo, Chenopodium album; settings: atrazine 1120, glufosinate 470 or glyphosate 1120 g a.i./ha alone
Description: as §1

large crabgrass (DIGSA) = experiment: Test 5 field trial, postemergence; format: in vivo, Digitaria sanguinalis; settings: atrazine 1120, glufosinate 470 or glyphosate 1120 g a.i./ha alone
Description: as §1

[2] = test system: common lambsquarters (CHEAL); experiment: Test 6 field trial, postemergence; format: in vivo, Chenopodium album; settings: 1120 g a.i./ha
Description: (§2) Corn seeds (hybrid ‘Pioneer 35Y62’) were planted in mid spring season, 3.8 cm deep in a silt loam soil having 4% organic matter and a pH of 5.8. Plots were 10.7 m long by 1.5 m wide with rows spaced 76 cm apart. Seeds were spaced 18 cm apart within the rows. The field was managed using conventional tillage practices. […] All treatments included a surfactant except glufosinate treatments, both alone and in combination. […] Results are summarized in Table 6 and are the means of the three replicates.

yellow foxtail (SETLU) = experiment: Test 6 field trial, postemergence; format: in vivo, Setaria glauca; settings: 1120 g a.i./ha
Description: as §2

[3] = test system: Pennsylvania smartweed (POLPY); experiment: Test 1 field trial, preemergence; format: in vivo, Polygonum pensylvanicum; settings: g a.i./ha: Atrazine 1680, S-Metolachlor 1870
Description: Corn seeds (hybrid ‘Pioneer 34N43’) were planted in mid spring season, 3.8 cm deep in a silt loam soil having 4.6% organic matter and a pH of 6. Plots were 10.7 m long by 1.5 m wide with rows spaced 76 cm apart. Seeds were spaced 18 cm apart within the rows. The field was managed using conventional tillage practices. […] Results are summarized in Table 1 and are the means of the three replicates. […] Colby's Equation (Colby, S. R. “Calculating Synergistic and Antagonistic Responses of Herbicide Combinations,” Weeds, 15(1), pp 20-22 (1967)) calculates the expected additive effect of herbicidal mixtures, and for two active ingredients is of the form:
Pa+b=Pa+Pb−(PaPb/100) • wherein Pa+b is the percentage effect of the mixture expected from additive contribution of the individual components, • Pa is the observed percentage effect of the first active ingredient at the same use rate as in the mixture, and • Pb is the observed percentage effect of the second active ingredient at the same use rate as in the mixture.

[4] = test system: common lambsquarters (CHEAL); experiment: Test 8 field trial, preemergence; format: in vivo, Chenopodium album; settings: g a.i./ha: Cpd 2 100, Atrazine 1680, S-Metolachlor 1870
Description: (§3) Corn seeds (hybrid ‘Pioneer 31G96’) were planted in mid spring season, 3.8 cm deep in a clay loam soil having 2% organic matter and a pH of 6.6. Plots were 6.1 m long by 3.0 m wide with rows spaced 76 cm apart. Seeds were spaced 15 cm apart within the rows. The field was managed using conventional tillage practices. […] A few of the weed species could not be evaluated at every timing. […] Results are the means of the three replicates.

[5] = test system: Pennsylvania smartweed (POLPY); experiment: Test 8 field trial, preemergence; format: in vivo, Polygonum pensylvanicum; settings: 29 DAA; g a.i./ha: Cpd 2 100, Atrazine 1680, S-Metolachlor 1870
Description: as §3

giant foxtail (SETFA) = experiment: Test 10 field trial, preemergence; format: in vivo, Setaria faberi; settings: 28 DAA; g a.i./ha: Cpd 2 100, Atrazine 1680, S-Metolachlor 1870
Description: Corn seeds (hybrid ‘Pioneer 33P65 RR’) were planted in mid spring season, 2.5 cm deep in a silt loam soil. Plots were 9.1 m long by 3.0 m wide with rows spaced 76 cm apart. The field was managed using conventional tillage practices. […] Results are the means of the three replicates.

common blackjack (BIDPI) = experiment: Test 11 field trial, preemergence; format: in vivo, Bidens pilosa; parameters: scale not given here; settings: alone or + atrazine 1500 or metolachlor 2500
Description: (§4) Corn seeds (hybrid ‘Pioneer 3041’) were planted in mid spring season, 5 cm deep in a clay soil having 2.6% organic matter and a pH of 5.6. Plots were 8 m long by 1.5 m wide with rows spaced 80 cm apart. Seeds were spaced 15 cm apart within the rows. The field was managed using conventional tillage practices. […] Treatments consisted of Compound 2 or
(§5) Goosegrass was not evaluated 16 or 91 days after application.

[6] = test system: Ipomoea grandiflora (IPOGF); experiment: Test 11 field trial, preemergence; format: in vivo
Description: as §4, §5

arrowleaf sida (SIDRH) = experiment: Test 11 field trial, preemergence; format: in vivo, Sida rhombifolia
Description: as §4, §5

[7] = 16 DAA, Cpd 2/Cpd 1 at 62 g a.i./ha, alone or + atrazine 1500 or metolachlor 2500
[8] = 16 DAA, Cpd 2/Cpd 1 at 125 g a.i./ha, alone or + atrazine 1500 or metolachlor 2500
[9] = 30 DAA, Cpd 2/Cpd 1 at 62 g a.i./ha, alone or + atrazine 1500 or metolachlor 2500
[10] = 30 DAA, Cpd 2/Cpd 1 at 125 g a.i./ha, alone or + atrazine 1500 or metolachlor 2500
[11] = 44 DAA, 62 g a.i./ha, scale 0 to 100
[12] = 44 DAA, 125 g a.i./ha, scale 0 to 100
[13] = 62 DAA, 62 g a.i./ha, scale 0 to 100
[14] = 62 DAA, 125 g a.i./ha, scale 0 to 100
[15] = 91 DAA, 62 g a.i./ha, scale 0 to 100
[16] = 91 DAA, 125 g a.i./ha, scale 0 to 100

## O=C(O)CNCP(=O)(O)O [Glyphosate]
Velvetleaf (ABUTH); 16 DAA
  ABUTH Obs: 84%
Velvetleaf (ABUTH); 31 DAA
  ABUTH Obs: 84%
Common ragweed (AMBEL); 16 DAA
  AMBEL Obs: 84%
Common ragweed (AMBEL); 31 DAA
  AMBEL Obs: 100%
[1]; 16 DAA
  CHEAL Obs: 100%
[1]; 31 DAA
  CHEAL Obs: 97%
Large crabgrass (DIGSA); 16 DAA
  DIGSA Obs: 98%
Large crabgrass (DIGSA); 31 DAA
  DIGSA Obs: 95%
[2]; 14 DAA
  CHEAL Obs: 100%
[2]; 28 DAA
  CHEAL Obs: 100%
Yellow foxtail (SETLU); 14 DAA
  SETLU Obs: 97%
Yellow foxtail (SETLU); 28 DAA
  SETLU Obs: 96%

## CCc1cccc(C)c1N(C(=O)CCl)[C@@H](C)COC [S-Metolachlor, S-metolachlor, reference compound]
[3]; 28 DAA
  POLPY Obs: 57
[3]; 56 DAA
  POLPY Obs: 20
[4]; 19 DAA
  CHEAL Obs: 45%
[4]; 56 DAA
  CHEAL Obs: 23%
[5]
  POLPY Obs: 100%
Giant foxtail (SETFA)
  SETFA Obs: 63%

## Nc1nc(C2CC2)nc(C(=O)O)c1Cl [Compound 1, 6-amino-5-chloro-2-cyclopropyl-4-pyrimidinecarboxylic acid]
Common blackjack (BIDPI); 16 DAA, Cpd 2/Cpd 1 at 62 g a.i./ha
  BIDPI Obs: 60
Common blackjack (BIDPI); 16 DAA, Cpd 2/Cpd 1 at 125 g a.i./ha
  BIDPI Obs: 80
Common blackjack (BIDPI); 30 DAA, Cpd 2/Cpd 1 at 62 g a.i./ha
  BIDPI Obs: 60
Common blackjack (BIDPI); 30 DAA, Cpd 2/Cpd 1 at 125 g a.i./ha
  BIDPI Obs: 80
Common blackjack (BIDPI); 44 DAA, Cpd 2/Cpd 1 at 62 g a.i./ha
  BIDPI Obs: 40
Common blackjack (BIDPI); 44 DAA, Cpd 2/Cpd 1 at 125 g a.i./ha
  BIDPI Obs: 80
Common blackjack (BIDPI); 62 DAA, Cpd 2/Cpd 1 at 62 g a.i./ha
  BIDPI Obs: 40
Common blackjack (BIDPI); 62 DAA, Cpd 2/Cpd 1 at 125 g a.i./ha
  BIDPI Obs: 60
Common blackjack (BIDPI); 91 DAA, Cpd 2/Cpd 1 at 62 g a.i./ha
  BIDPI Obs: 0
Common blackjack (BIDPI); 91 DAA, Cpd 2/Cpd 1 at 125 g a.i./ha
  BIDPI Obs: 70
[6]; [7]
  IPOGF Obs: 20
[6]; [8]
  IPOGF Obs: 40
[6]; [9]
  IPOGF Obs: 40
[6]; [10]
  IPOGF Obs: 80
[6]; [11]
  IPOGF Obs: 60
[6]; [12]
  IPOGF Obs: 80
[6]; [13]
  IPOGF Obs: 0
[6]; [14]
  IPOGF Obs: 75
[6]; [15]
  IPOGF Obs: 0
[6]; [16]
  IPOGF Obs: 60
Arrowleaf sida (SIDRH); [7]
  SIDRH Obs: 40
Arrowleaf sida (SIDRH); [8]
  SIDRH Obs: 75
Arrowleaf sida (SIDRH); [9]
  SIDRH Obs: 60
Arrowleaf sida (SIDRH); [10]
  SIDRH Obs: 65
Arrowleaf sida (SIDRH); [11]
  SIDRH Obs: 75
Arrowleaf sida (SIDRH); [12]
  SIDRH Obs: 95
Arrowleaf sida (SIDRH); [13]
  SIDRH Obs: 40
Arrowleaf sida (SIDRH); [14]
  SIDRH Obs: 95
Arrowleaf sida (SIDRH); [15]
  SIDRH Obs: 0
Arrowleaf sida (SIDRH); [16]
  SIDRH Obs: 100
